Test results reported in article PMC6979384, “Characterization of the plant homeodomain (PHD) reader family for their histone tail interactions” (Epigenetics & Chromatin, 2020).
Where no end group is shown, it is not given here. [ ]: non-standard residue; d: D form. Lys(Me3) = C[N+](C)(C)CCCC[C@H](N)C(=O)O

How the values were obtained:
Test in all cases: Histone peptide microarray
Assay type in all cases: binding, human
AIRE (PP) = conditions: sheet "Array Heatmap", total n = 4; for Array Heatmap value (peptide array signal): AIRE (PP), each array performed twice
Procedure, shortened: (§1)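 Binding read as mean relative signal from 4 replicates; microarray held 293 synthetic histone peptides with single or combinatorial PTMs. Each GST-tagged PHD reader was applied at 0.5 μM using the optimized Petell protocol.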

BAZ2B = conditions: sheet "Array Heatmap", total n = 4; for Array Heatmap value (peptide array signal): BAZ2B, each array performed twice
Procedure, shortened: as §1

BPTF (PB) = conditions: sheet "Array Heatmap", total n = 4; for Array Heatmap value (peptide array signal): BPTF (PB), each array performed twice
Procedure, shortened: as §1

CHD4 (PPCC) = conditions: sheet "Array Heatmap", total n = 4; for Array Heatmap value (peptide array signal): CHD4 (PPCC), each array performed twice
Procedure, shortened: as §1

CHD5 (PCC) = conditions: sheet "Array Heatmap", total n = 4; for Array Heatmap value (peptide array signal): CHD5 (PCC), each array performed twice
Procedure, shortened: as §1

CHD5 (PPCC) = conditions: sheet "Array Heatmap", total n = 4; for Array Heatmap value (peptide array signal): CHD5 (PPCC), each array performed twice
Procedure, shortened: as §1

DIDO1 = conditions: sheet "Array Heatmap", total n = 4; for Array Heatmap value (peptide array signal): DIDO1, each array performed twice
Procedure, shortened: as §1

DPF2 (PPC2W2) = conditions: sheet "Array Heatmap", total n = 4; for Array Heatmap value (peptide array signal): DPF2 (PPC2W2), each array performed twice
Procedure, shortened: as §1

ING1 = conditions: sheet "Array Heatmap", total n = 4; for Array Heatmap value (peptide array signal): ING1, each array performed twice
Procedure, shortened: as §1

ING2 = conditions: sheet "Array Heatmap", total n = 4; for Array Heatmap value (peptide array signal): ING2, each array performed twice
Procedure, shortened: as §1

ING3 = conditions: sheet "Array Heatmap", total n = 4; for Array Heatmap value (peptide array signal): ING3, each array performed twice
Procedure, shortened: as §1

ING4 = conditions: sheet "Array Heatmap", total n = 4; for Array Heatmap value (peptide array signal): ING4, each array performed twice
Procedure, shortened: as §1

ING5 = conditions: sheet "Array Heatmap", total n = 4; for Array Heatmap value (peptide array signal): ING5, each array performed twice
Procedure, shortened: as §1

KDM4C (TTP) = conditions: sheet "Array Heatmap", total n = 4; for Array Heatmap value (peptide array signal): KDM4C (TTP), each array performed twice
Procedure, shortened: as §1

KDM5A (1) = conditions: sheet "Array Heatmap", total n = 4; for Array Heatmap value (peptide array signal): KDM5A (1), each array performed twice
Procedure, shortened: as §1

KDM5A (3) = conditions: sheet "Array Heatmap", total n = 4; for Array Heatmap value (peptide array signal): KDM5A (3), each array performed twice
Procedure, shortened: as §1

KDM5B (1) = conditions: sheet "Array Heatmap", total n = 4; for Array Heatmap value (peptide array signal): KDM5B (1), each array performed twice
Procedure, shortened: as §1

KDM5B (3) = conditions: sheet "Array Heatmap", total n = 4; for Array Heatmap value (peptide array signal): KDM5B (3), each array performed twice
Procedure, shortened: as §1

KDM7A = conditions: sheet "Array Heatmap", total n = 4; for Array Heatmap value (peptide array signal): KDM7A, each array performed twice
Procedure, shortened: as §1

MLL5 = conditions: sheet "Array Heatmap", total n = 4; for Array Heatmap value (peptide array signal): MLL5, each array performed twice
Procedure, shortened: as §1

MORC3 (CW) = conditions: sheet "Array Heatmap", total n = 4; for Array Heatmap value (peptide array signal): MORC3 (CW), each array performed twice
Procedure, shortened: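 Each reader, produced as a GST fusion and purified, was tested at 0.5 μM on synthetic histone peptides (293 in total) carrying single or combinatorial marks. Intensities averaged over four replicates.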

PHF13 = conditions: sheet "Array Heatmap", total n = 4; for Array Heatmap value (peptide array signal): PHF13, each array performed twice
Procedure, shortened: as §1

PHF21A = conditions: sheet "Array Heatmap", total n = 4; for Array Heatmap value (peptide array signal): PHF21A, each array performed twice
Procedure, shortened: as §1

PHF23 = conditions: sheet "Array Heatmap", total n = 4; for Array Heatmap value (peptide array signal): PHF23, each array performed twice
Procedure, shortened: as §1

PHF2 = conditions: sheet "Array Heatmap", total n = 4; for Array Heatmap value (peptide array signal): PHF2, each array performed twice
Procedure, shortened: as §1

PHF8 = conditions: sheet "Array Heatmap", total n = 4; for Array Heatmap value (peptide array signal): PHF8, each array performed twice
Procedure, shortened: as §1

PHRF1 (RP) = conditions: sheet "Array Heatmap", total n = 4; for Array Heatmap value (peptide array signal): PHRF1 (RP), each array performed twice
Procedure, shortened: as §1

RAG2 = conditions: sheet "Array Heatmap", total n = 4; for Array Heatmap value (peptide array signal): RAG2, each array performed twice
Procedure, shortened: as §1

SP140L = conditions: sheet "Array Heatmap", total n = 4; for Array Heatmap value (peptide array signal): SP140L, each array performed twice
Procedure, shortened: as §1

TAF3 = conditions: sheet "Array Heatmap", total n = 4; for Array Heatmap value (peptide array signal): TAF3, each array performed twice
Procedure, shortened: as §1

TRIM66 (PB) = conditions: sheet "Array Heatmap", total n = 4; for Array Heatmap value (peptide array signal): TRIM66 (PB), each array performed twice
Procedure, shortened: as §1

[1] = GST-tagged reader, histone peptide array

H3K4me2 + T6p: H3 1-20
Array Heatmap signal, AIRE (PP) (AIRE (PP); [1]): 0.3956 | Array Heatmap signal, BAZ2B (BAZ2B; [1]): 0.3939 | Array Heatmap signal, BPTF (PB) (BPTF (PB); [1]): 0.3354 | Array Heatmap signal, CHD4 (PPCC) (CHD4 (PPCC); [1]): 0.5639 | Array Heatmap signal, CHD5 (PCC) (CHD5 (PCC); [1]): 0.7961 | Array Heatmap signal, CHD5 (PPCC) (CHD5 (PPCC); [1]): 0.4881 | Array Heatmap signal, DIDO1 (DIDO1; [1]): 0.7205 | Array Heatmap signal, DPF2 (PPC2W2) (DPF2 (PPC2W2); [1]): 0.6113 | Array Heatmap signal, ING1 (ING1; [1]): 0.5538 | Array Heatmap signal, ING2 (ING2; [1]): 0.6785 | Array Heatmap signal, ING3 (ING3; [1]): 0.4685 | Array Heatmap signal, ING4 (ING4; [1]): 0.4083 | Array Heatmap signal, ING5 (ING5; [1]): 0.3133 | Array Heatmap signal, KDM4C (TTP) (KDM4C (TTP); [1]): 0.4526 | Array Heatmap signal, KDM5A (1) (KDM5A (1); [1]): 0.3957 | Array Heatmap signal, KDM5A (3) (KDM5A (3); [1]): 0.5519 | Array Heatmap signal, KDM5B (1) (KDM5B (1); [1]): 0.6237 | Array Heatmap signal, KDM5B (3) (KDM5B (3); [1]): 0.4514 | Array Heatmap signal, KDM7A (KDM7A; [1]): 0.3717 | Array Heatmap signal, MLL5 (MLL5; [1]): 0.5839 | Array Heatmap signal, MORC3 (CW) (MORC3 (CW); [1]): 0.4606 | Array Heatmap signal, PHF13 (PHF13; [1]): 0.5699 | Array Heatmap signal, PHF21A (PHF21A; [1]): 0.4239 | Array Heatmap signal, PHF23 (PHF23; [1]): 0.5061 | Array Heatmap signal, PHF2 (PHF2; [1]): 0.5776 | Array Heatmap signal, PHF8 (PHF8; [1]): 0.3931 | Array Heatmap signal, PHRF1 (RP) (PHRF1 (RP); [1]): 0.4464 | Array Heatmap signal, RAG2 (RAG2; [1]): 0.2424 | Array Heatmap signal, SP140L (SP140L; [1]): 0.3405 | Array Heatmap signal, TAF3 (TAF3; [1]): 0.2971 | Array Heatmap signal, TRIM66 (PB) (TRIM66 (PB); [1]): 0.586

H3K4me3 (1-7): H3 1-7 (ART[Lys(Me3)]QTA; UniProt P68431 2-8, looked up, fragment)
Array Heatmap value (peptide array signal) (AIRE (PP)): 0.5351 | Array Heatmap value (peptide array signal) (BAZ2B): 0.5069 | Array Heatmap value (peptide array signal) (BPTF (PB)): 0.3708 | Array Heatmap value (peptide array signal) (CHD4 (PPCC)): 0.5649 | Array Heatmap value (peptide array signal) (CHD5 (PCC)): 0.8146 | Array Heatmap value (peptide array signal) (CHD5 (PPCC)): 0.5698 | Array Heatmap value (peptide array signal) (DIDO1): 0.6423 | Array Heatmap value (peptide array signal) (DPF2 (PPC2W2)): 0.6324 | Array Heatmap value (peptide array signal) (ING1): 0.5185 | Array Heatmap value (peptide array signal) (ING2): 0.6464 | Array Heatmap value (peptide array signal) (ING3): 0.472 | Array Heatmap value (peptide array signal) (ING4): 0.4911 | Array Heatmap value (peptide array signal) (ING5): 0.4084 | Array Heatmap value (peptide array signal) (KDM4C (TTP)): 0.5656 | Array Heatmap value (peptide array signal) (KDM5A (1)): 0.4902 | Array Heatmap value (peptide array signal) (KDM5A (3)): 0.5067 | Array Heatmap value (peptide array signal) (KDM5B (1)): 0.7094 | Array Heatmap value (peptide array signal) (KDM5B (3)): 0.5187 | Array Heatmap value (peptide array signal) (KDM7A): 0.7221 | Array Heatmap value (peptide array signal) (MLL5): 0.7048 | Array Heatmap value (peptide array signal) (MORC3 (CW)): 0.489 | Array Heatmap value (peptide array signal) (PHF13): 0.6272 | Array Heatmap value (peptide array signal) (PHF21A): 0.4644 | Array Heatmap value (peptide array signal) (PHF23): 0.5369 | Array Heatmap value (peptide array signal) (PHF2): 0.4609 | Array Heatmap value (peptide array signal) (PHF8): 0.544 | Array Heatmap value (peptide array signal) (PHRF1 (RP)): 0.3886 | Array Heatmap value (peptide array signal) (RAG2): 0.3345 | Array Heatmap value (peptide array signal) (SP140L): 0.3724 | Array Heatmap value (peptide array signal) (TAF3): 0.3574 | Array Heatmap value (peptide array signal) (TRIM66 (PB)): 0.5289

H3K4me3 (1-11): H3 1-11
Array Heatmap value (peptide array signal) (AIRE (PP)): 0.5119 | Array Heatmap value (peptide array signal) (BAZ2B): 0.4805 | Array Heatmap value (peptide array signal) (BPTF (PB)): 0.3697 | Array Heatmap value (peptide array signal) (CHD4 (PPCC)): 0.5943 | Array Heatmap value (peptide array signal) (CHD5 (PCC)): 0.8101 | Array Heatmap value (peptide array signal) (CHD5 (PPCC)): 0.5701 | Array Heatmap value (peptide array signal) (DIDO1): 0.7285 | Array Heatmap value (peptide array signal) (DPF2 (PPC2W2)): 0.6949 | Array Heatmap value (peptide array signal) (ING1): 0.5841 | Array Heatmap value (peptide array signal) (ING2): 0.6411 | Array Heatmap value (peptide array signal) (ING3): 0.5106 | Array Heatmap value (peptide array signal) (ING4): 0.465 | Array Heatmap value (peptide array signal) (ING5): 0.3839 | Array Heatmap value (peptide array signal) (KDM4C (TTP)): 0.5306 | Array Heatmap value (peptide array signal) (KDM5A (1)): 0.5087 | Array Heatmap value (peptide array signal) (KDM5A (3)): 0.6017 | Array Heatmap value (peptide array signal) (KDM5B (1)): 0.6584 | Array Heatmap value (peptide array signal) (KDM5B (3)): 0.5281 | Array Heatmap value (peptide array signal) (KDM7A): 0.4006 | Array Heatmap value (peptide array signal) (MLL5): 0.6217 | Array Heatmap value (peptide array signal) (MORC3 (CW)): 0.5155 | Array Heatmap value (peptide array signal) (PHF13): 0.6221 | Array Heatmap value (peptide array signal) (PHF21A): 0.5172 | Array Heatmap value (peptide array signal) (PHF23): 0.5829 | Array Heatmap value (peptide array signal) (PHF2): 0.5693 | Array Heatmap value (peptide array signal) (PHF8): 0.4899 | Array Heatmap value (peptide array signal) (PHRF1 (RP)): 0.4768 | Array Heatmap value (peptide array signal) (RAG2): 0.3044 | Array Heatmap value (peptide array signal) (SP140L): 0.3833 | Array Heatmap value (peptide array signal) (TAF3): 0.3193 | Array Heatmap value (peptide array signal) (TRIM66 (PB)): 0.5622
